Entries after “also recorded” stand apart in the source; their conditions may differ.
What was measured:
[1] = in vivo; cited from earlier work
[2] = in humans; cited from earlier work
[3] = tested on: ligated hind limb (unilateral hind limb ischemia); assay: Blood perfusion by laser Doppler imaging in rat unilateral hind limb ischemia model of PAD; assay type: in vivo, Sprague-Dawley (SD) rats; details: SD rats; for blood perfusion in ligated limbs (laser Doppler imaging): hind limb ischemia, CLC-1011 3.6 mg/day by osmotic pump, Cilostazol 100 mg/kg bi-daily orally, over 21 days (FIG. 1)
Procedure: (§1) The animals were held in the Open Animal Facility at the Department of Physiology, University of Zurich and used after a suitable period allowing the animals to adapt to the new environment. A unilateral hind limb ischemia was created in the SD rats by surgical intervention, whereby the right hind limb was ligated and the vessels excised as described in Vasc. Pharmacol., 2009, 51(4):268-74. The animals were then randomly assigned to receive either Cilostazol alone (100 mg/kg/bi-daily orally by gavage), CLC-1011 (3.6 mg/day by mini-osmotic pump, e.g. Model #2004, Alzet Inc.) alone, a combination of Cilostazol (100 mg/kg/bi-daily) and CLC-1011 (3.6 mg/day by mini-osmotic pump), or placebo for a total duration of 2 or 4 weeks.
(§2) During the treatment intervals, animals were scanned using laser Doppler imaging every third day post-operation to estimate the blood perfusion in ligated limbs. Blood flow was measured using a laser Doppler imager (Moor, Axminster, UK) and analyzed with the MoorLDI™ Image Review V51 software. The animals were placed on a heating pad in order to maintain constant body temperature during the entire procedure. At the end of the 2 and 4 weeks interval, animals were sacrificed and muscles were isolated and prepared for histological analysis.

[4] = tested on: adductor muscle of hypoxic limb; assay: Histological analysis of muscles (new vessels, capillary and arteriole density), rat hind limb ischemia; assay type: in vivo, Sprague-Dawley (SD) rats; details: SD rats; for number of arterioles in isolated muscles (arterioles density/mm^2): at 4 weeks, compared to Cilostazol- and placebo-treated animals (FIG. 5)
Procedure: as §1, §2

[5] = tested on: arterioles of adductor muscle; assay: Vascular remodelling, histopathological analysis of isolated adductor muscle; assay type: in vivo; details: SD rats, compared to Cilostazol and placebo (FIG. 7)
Procedure: In order to assess possible effects the different treatments have on vascular remodelling, histopathological analysis of isolated adductor muscle was performed and the vascular luminal- and vascular wall-properties were addressed. […] See FIG. 7 showing in the left panel the arteriolar wall area/luminar ratio in the four treatment arms.

[6] = tested on: platelets; assay: Platelet activation by mean fluorescence intensity in platelets isolated from treatment groups; assay type: in vivo; details: platelets from treated rats; resting state (FIG. 8)
Procedure: Platelet activation was determined using mean fluorescence measurements.

[7] = tested on: stromal cell-derived factor 1 (SDF-1); assay: Circulating SDF-1 levels in serum by ELISA; assay type: in vivo; details: rats; serum at day 6 post-ischemia; ELISA (FIG. 9)
Procedure: The stromal cell-derived factor 1 (SDF-1) is a circulating proangiogenic cytokine, which plays an important role in angiogenesis. Serum of rats from 4 treatment arms was collected at day 6 post-ischemia. SDF-1 levels were determined by ELISA using methods known in the art.

[8] = tested on: ischemic hind limb; assay: Blood flow by laser Doppler imaging in diabetic mice with hind limb ischemia; assay type: in vivo, diabetic mouse (Bks.Cg+Lepr<db>/+Lepr<db>/OlaHsd); details: for blood perfusion (laser Doppler imaging): diabetic mice with hind limb ischemia (FIG. 10a)
Procedure: Blood flow was measured by laser Doppler imaging in diabetic mice with hind limb ischemic after treatment with CLC-1011 alone or in a combination with Cilostazol.

[9] = tested on: adductor muscles; assay: Immunohistochemical analysis of adductor muscles (capillary density), diabetic mice; assay type: in vivo, diabetic mouse (Bks.Cg+Lepr<db>/+Lepr<db>/OlaHsd); details: normalized by number of myocytes (FIG. 11a, 11b)
[10] = tested on: arterioles of adductor muscle; assay: Arterioles density by alpha-SMA immunohistology, diabetic mice; assay type: in vivo, diabetic mouse (Bks.Cg+Lepr<db>/+Lepr<db>/OlaHsd); details: alpha-SMA immunohistology (FIG. 12)
Procedure: Immunohistology for the alpha-smooth muscle (α-SMA) antigen was employed to highlight the vascular structures within the muscles and allow accurate counting of arterioles. Briefly, sections were deparaffinised in xylene (2×5 min) and rehydrated in decreasing concentrations of ethanol (2×3 min washes in 100% ethanol, followed by 1×3 min wash in 96% ethanol). Sections were washed twice with Tris-buffered saline (TBS, 0.1 M Tris- HCl with 0.9% NaCl, pH 7.4) and incubated for 1 h at room temperature (RT) with the primary antisera (M0851, Dako, Baar, Switzerland), without pretreatment. A detection kit containing the secondary antibody and diaminobenzidine tetrahydrochloride (DAB) as chromogen was subsequently applied according to the manufacturer's protocols
(Peroxidase/DAB plus Mouse Kit; DAKO). Sections were then washed 3 times in TBS and once in distilled water and counterstained for 1 min with haematoxylin, followed by rinsing for 5 min in tap water and dehydration in ascending alcohols, clearing in xylene, coverslipping and mounting. Arterioles density was quantified in histological sections of the adductor muscle. Results were expressed as number of arterioles/mm^2 of tissue.

[11] = tested on: arterioles; assay: Arteriolar remodeling response to ischemia (wall and luminal area), diabetic mice; assay type: in vivo, diabetic mouse (Bks.Cg+Lepr<db>/+Lepr<db>/OlaHsd); details: arterioles (FIG. 13)
Procedure: These findings corroborate with the remodeling effect of CLC-1011 seen at the vascular wall. To check the arteriolar remodeling response to the ischemia, immunohistochemistry was performed as described above. The remodeling consists in the wall area per luminal area ratio. The measurement of wall and luminal areas and diameter calculation of arterioles was performed in an equal random area for each histological sample. The results shown in FIG. 13a; FIG. 13b and FIG. 13c indicate that the luminal area of the vessels increased in the CLC-1011-treated animals, but not in the Cilostazol- or the placebo-treated animals. Of note, the results indicated no change in the wall area size in either of the groups.

[12] = tested on: endothelial progenitor cells; assay: Mobilization of putative stem cells into peripheral blood by flow cytometry, diabetic mice; assay type: in vivo, diabetic mouse (Bks.Cg+Lepr<db>/+Lepr<db>/OlaHsd)
Procedure: Mobilization of putative stern cells from bone marrow into the peripheral blood in the placebo and treated groups mice 7 days after surgery was assessed by flow cytometry in whole blood. The cells were identified using a combination of antibodies that binds to the specific cell surface markers typical for potential angiogenic stem cells.

[13] = whole blood flow cytometry, 7 days after surgery (FIG. 14)

Compound | half-live [1] | nitrate tolerance [2] | blood perfusion in ligated limbs (laser Doppler imaging) [3] | time up to which the increase in blood perfusion can be detected ([3]; ligated hind limb normalized to contralateral limb (FIG. 6)) | angiogenesis / capillary density in the adductor muscle ([4]; after 2 and 4 weeks of treatment, 28 days after surgery (FIG. 4)) | number of arterioles in isolated muscles (arterioles density/mm^2) [4] | number of arterioles in isolated muscles (arterioles density/mm^2) ([4]; listed as CL-1011) | formation of new blood vessels in hypoxic limb tissue ([4]; tissue sections (FIG. 3)) | luminal area of the vessels [5] | platelet activation (mean fluorescence intensity) [6] | circulating SDF-1 levels in serum [7] | blood perfusion (laser Doppler imaging) [8] | area under the curve of blood flow ([8]; diabetic mice with hind limb ischemia (FIG. 10b)) | capillary density in adductor muscles [9] | arterioles density in the hind limb [10] | luminal area of the vessels [11] | recruitment of the endothelial progenitor cells ([12]; peripheral blood 7 days after surgery) | number of potential endothelial progenitor cells positive for VEGFR2 [12, 13] | number of potential endothelial progenitor cells positive for stem cell antigen 1 (Sca-1) [12, 13]
NCCO[N+](=O)[O-] [AEN, 2-aminoethyl nitrate] | approx. 2 hours | does not provoke nitrate tolerance |  |  |  |  |  |  |  |  |  |  |  |  |  |  |  |  | 
NCCO[N+](=O)[O-] [CLC-1011, 2-aminoethyl nitrate] |  |  | increase in blood perfusion | up to 3 weeks | significant arteriogenic effects; also recorded: angiogenesis has been stimulated | significant arteriogenic effects | significantly contributes to an increase of the number of arterioles | clear increase in the formation of new blood vessels | significantly increases luminal area | significantly prevents activation of platelets in resting state | induced the release of the circulating SDF-1 | increase in the blood perfusion; also recorded: increased blood perfusion | increase of the area under the curve | increase of the capillary density | increase of the arterioles | increased | enhances the recruitment of the endothelial progenitor cells | increase in the number of potential endothelial progenitor cells | increase in the number of potential endothelial progenitor cells
O=C1CCc2cc(OCCCCc3nnnn3C3CCCCC3)ccc2N1 [Cilostazol, reference compound] |  |  | no effect in blood flow |  |  |  |  |  | such effect is absent | no effect in prevention of platelet activation and aggregation |  | remains unchanged |  |  | no change | not |  |  | 

From patent US20180036259A1, “NO DONORS FOR THE TREATMENT OF IMPAIRED TISSUE PERFUSION” (MIRANDAPHARMACEUTICALS AG, priority 2015, published 2018)
